One assay relates to yeast PEX7. The assay is described as follows: Bead-binding assay: peptide-conjugated beads, recruitment of PEX7–GFP or PTS2–GFP. More on the design: species or system yeast (S. cerevisiae). The following applies: 1 h; for Recruitment of PTS2–GFP to peptide-conjugated beads: 1 µM PEX7 and 1 µM receptor, 1 µM cargo; for Recruitment of PEX7–GFP to peptide-conjugated beads: peptide on thiol-reactive beads, fluorescence microscopy. The text has this:
(§1) Cysteine-containing peptides were covalently conjugated to thiol-reactive SulfoLink coupling resin (Thermo Fisher, catalogue number 20401) according to the manufacturer’s instructions. The prepared beads were then mixed with Assay Buffer containing the fluorescently labelled protein as well as additional components indicated in the text, and the resulting bead suspensions were transferred to a 384-well glass-bottomed plate (Cellvis, P384-1.5H-N). GST-fusion proteins were instead mixed with glutathione agarose 4B (Prometheus, 20-543) in Assay Buffer containing the fluorescently labelled protein and additional components indicated in the text; the resulting bead suspensions were then transferred to a glass-bottomed plate as above. The plates were incubated at RT for the durations specified in the text and directly imaged on the spinning-disk confocal platform described earlier for peroxisomal import reactions in Xenopus egg extract. Note that imaging the beads directly in the binding reaction preserves the equilibrium and thereby allows even weak interactions to be detected. Fluorescence was collected through a Nikon ×10 0.45 NA Plan Apo air objective, and images were acquired using the Nikon NIS-Elements software and a 16-bit digitizer without binning. Imaging parameters were configured to maximize the SNR while avoiding saturation. Samples intended to be compared were imaged using identical acquisition settings.

The subject of assay [1] is PEX7–receptor–cargo complex on PEX39-coated beads. The assay is described as follows: Bead-binding assay: recruitment of PEX7–receptor–cargo complex to PEX39-coated beads (Fig. 7d, 8a). The following applies: 100 µM peptide, overnight, Fig. 8a. More on the design: species or system yeast (S. cerevisiae).
Description: as §1

The subject of assay [2] is yeast PEX7 bound to the ∆APH mutant of GST-tagged PEX39. The assay is described as follows: Competitive binding: peptide displacement of PEX7 from GST-tagged ∆APH PEX39 beads (Fig. 8b). More on the design: species or system yeast (S. cerevisiae). The following applies: for Stripping of PEX7 off PEX39 lacking the APH: peptide competition, Fig. 8b. Here is the method: For the assay shown in Fig. 8b, the beads were first incubated with yeast PEX7 and the GST-tagged ∆APH variant of yeast PEX39 (each at 1 µM) for 30 min at 25 °C with agitation. Varying concentrations of the peptides, as indicated in the text, were then added and the reactions were incubated for a further 1 h under the same conditions. The beads were finally sedimented and the resulting supernatant fractions resolved by SDS–PAGE as above.
To calculate the fraction bound in the quantitative binding assay, digitized images of Coomassie-stained gels were first converted into 16-bit grayscale and their pixel intensities inverted. The mean pixel intensity was then measured within a rectangular selection encompassing each PEX7 protein band and the mean intensity of the background was subtracted from the measured values. The background-corrected intensities (corresponding to unbound PEX7 remaining in solution) were in turn subtracted from the intensity of the PEX7 band in a sample without PEX39 (that is, total PEX7). The resulting difference (corresponding to PEX7 that had bound to the beads) was finally divided by the total PEX7 intensity to yield the fraction bound. The data were fitted either to a standard binding isotherm or a competitive-binding isotherm, as appropriate, to estimate the observed binding constants.

Assay [3] has as its system YG hydrogel (wild-type YG-domain polypeptide of PEX13). The assay is described as follows: YG hydrogel permeation assay, wild-type hydrogel (Fig. 2, Fig. 3g, Extended Data Fig. 9d). The note with it: for Displacement: PEX5-21 + PEX7. Here is the method: A solution of the purified wild-type YG-domain polypeptide (or the variant lacking the KPWE motif) was concentrated to 2 mM in 50 mM HEPES·NaOH pH 7.8 at RT, 2 M urea and 2 mM TCEP. Aliquots of 2 µl were then spotted on the bottom of multiple wells of a 96-well glass-bottomed plate (Cellvis, P96-1.5H-N), which was then sealed with a gas-impermeable AlumaSeal II film (Hampton Research, HR8-069) to prevent desiccation and incubated at RT for 24 h. Before each assay, the resulting gels were equilibrated overnight at RT in a 100-fold excess of Assay Buffer (25 mM HEPES·NaOH pH 7.8 at RT, 150 mM NaCl and 1 mM TCEP). A 0.5 µM solution of fluorescently labelled protein in Assay Buffer was then added to the samples, with or without additional components at the concentrations indicated in the text, and incubated at RT. Gels were imaged at the times indicated in the text using a Nikon A1R point-scanning confocal system consisting of an inverted Nikon Eclipse Ti microscope and a Nikon ×20 0.75 NA Plan Apo air objective. The objective was centred on the gel edge and focus was maintained 5 µm above the glass surface using the Nikon Perfect Focus System. Fluorescence was excited through a 405/488/561/647 quad-band dichroic (Chroma), using a 488-nm solid-state laser (Coherent) and a galvano scanner. A 50-nm emission band was collected on a gallium arsenide phosphide detector, using an ET525/50m (525 ± 25 nm) single-band bandpass filter (Chroma) and a pinhole dilated to 0.9 Airy units. Images were acquired using the Nikon NIS-Elements software with a pixel size of 1 µm and a 12-bit digitizer. Imaging parameters were configured to maximize the SNR while avoiding saturation. All samples intended to be compared were imaged using identical acquisition settings.
For the YG hydrogel permeation assay, images were first oriented such that each gel edge faced the same direction. Fluorescence profiles across the buffer–gel interface were then generated by centering a 60 × 300 µm rectangular area on the gel edge and then measuring the mean fluorescence at each position within this selection. To express the resulting values in terms of fold enrichment, the fluorescence at each position along the selection was normalized to the average fluorescence in the buffer and plotted in terms of the distance from the gel edge.
To calculate permeation rates through the YG hydrogel, a 60 × 300 µm rectangular area was first centred on the gel edge. The resulting region was then thresholded to demarcate the permeation zone (that is, the distance traversed by the fluorescent species) from the buffer and non-permeated part of the gel. The width of the area above the threshold was then measured and plotted as a function of time. A linear fit to the data yielded the permeation rate.

The target of another assay is T1, yeast PEX7, P39108.
T1 chain: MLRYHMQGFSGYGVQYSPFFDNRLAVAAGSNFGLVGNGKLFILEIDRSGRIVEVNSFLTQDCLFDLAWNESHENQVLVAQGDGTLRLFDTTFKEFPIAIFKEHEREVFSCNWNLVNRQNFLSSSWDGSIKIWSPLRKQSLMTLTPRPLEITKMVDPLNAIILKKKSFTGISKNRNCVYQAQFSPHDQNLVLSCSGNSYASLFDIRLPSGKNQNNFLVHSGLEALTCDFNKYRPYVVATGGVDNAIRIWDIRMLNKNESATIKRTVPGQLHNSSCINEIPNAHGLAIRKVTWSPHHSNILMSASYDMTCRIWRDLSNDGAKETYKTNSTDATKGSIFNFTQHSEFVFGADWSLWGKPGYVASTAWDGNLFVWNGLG
Nature of the assay: bead sedimentation (GST pull-down depletion) assay, SDS-PAGE with Coomassie quantification of PEX7 left in the supernatant. The following applies: chain shown with the change; 1 µM yeast PEX7; varying GST-PEX39 concentrations; 1 h; 25 °C; parent: 0.60 ± 0.056.

For assay [4], the target named is T2, yeast PEX7 fused at the C terminus to GFP (PEX7–GFP) (yeast (S. cerevisiae), UniProt P39108 1-375).
T2 construct: PEX7, yeast (S. cerevisiae); not shown: GST, N-terminal, cleaved; GFP, C-terminal, kept
T2 sequence (looked up): T1 chain
Nature of the assay: YG hydrogel release assay (confocal microscopy); hydrogels equilibrated 3 h at RT with 0.5 µM PEX7–GFP or PEX5–GFP, with or without PTS2 peptide and receptor; PEX39 then spiked in and gels imaged every 2 min for 1 h. The following applies: both partners purified.

Numbering of substitutions follows the chain as printed.

“CSSTAVPEPRWKPTSASLEE [scrambled peptide, KPWE peptide with amino acids 8 and 10–13 rearranged]”: the “Recruitment of PTS2–GFP to peptide-conjugated beads” value in the assay with yeast PEX7 was “No binding was seen”. Besides, the “Recruitment of PEX7–GFP to peptide-conjugated beads” value with yeast PEX7 is listed as “could not”. The “Effect of peptide on recruitment of the PEX7–receptor–cargo complex to PEX39-coated beads” value in assay [1] was “had no effect”. In addition, the Fraction bound in assay [2] ([Peptide] 10 µM, replicate 1) came out at 0.936; in assay [2] ([Peptide] 10 µM, replicate 2), 0.865; in assay [2] ([Peptide] 10 µM, replicate 3), 0.914; in assay [2] ([Peptide] 30 µM, replicate 1), 0.947; in assay [2] ([Peptide] 30 µM, replicate 2), 0.840; in assay [2] ([Peptide] 30 µM, replicate 3), 0.887. Besides, the Fraction bound in assay [2] ([Peptide] 100 µM, replicate 1) was 0.965; in assay [2] ([Peptide] 100 µM, replicate 2) it was 0.864; in assay [2] ([Peptide] 100 µM, replicate 3), 0.888; in assay [2] ([Peptide] 300 µM, replicate 1) it was 0.952; in assay [2] ([Peptide] 300 µM, replicate 2), 0.871; in assay [2] ([Peptide] 300 µM, replicate 3), 0.887. For the same molecule, the Fraction bound was 0.902 in assay [2] ([Peptide] 1000 µM, replicate 1); 0.861 in assay [2] ([Peptide] 1000 µM, replicate 2); 0.848 in assay [2] ([Peptide] 1000 µM, replicate 3). Also, the “Stripping of PEX7 off PEX39 lacking the APH” value in assay [2] was “could not”.
As to “CSSTAVPRPKPWETSASLEE [KPWE peptide, residues 2–20 of S. cerevisiae PEX13 with an additional N-terminal cysteine]”, in the assay with yeast PEX7, the “Recruitment of PTS2–GFP to peptide-conjugated beads” value is “could recruit PTS2–GFP only when PEX7 and the receptor were both present”. Besides, the “Recruitment of PEX7–GFP to peptide-conjugated beads” value in the assay on yeast PEX7 was “could recruit yeast PEX7 fused at the C terminus to GFP”. For the same molecule, the “Effect of peptide on recruitment of the PEX7–receptor–cargo complex to PEX39-coated beads” value in assay [1] is reported as “no longer efficiently recruited to PEX39-coated beads”. The “Kobs (observed binding constant)” value in assay [2] (PEX7 and GST-PEX39 ∆APH each 1 µM, peptide added 1 h, 25 °C, competitive-binding isotherm, mean ± s.e.m., three independent experiments, ND = binding not detectable) was determined as 41 ± 1.2 µM. In addition, the Fraction bound stood at 0.810 in assay [2] ([Peptide] 10 µM, replicate 1); 0.769 in assay [2] ([Peptide] 10 µM, replicate 2); 0.841 in assay [2] ([Peptide] 10 µM, replicate 3); 0.666 in assay [2] ([Peptide] 30 µM, replicate 1); 0.688 in assay [2] ([Peptide] 30 µM, replicate 2); 0.732 in assay [2] ([Peptide] 30 µM, replicate 3). Further, the Fraction bound in assay [2] ([Peptide] 100 µM, replicate 1) is on record as 0.458; in assay [2] ([Peptide] 100 µM, replicate 2), 0.521; in assay [2] ([Peptide] 100 µM, replicate 3) it was 0.552; in assay [2] ([Peptide] 300 µM, replicate 1) it was 0.302; in assay [2] ([Peptide] 300 µM, replicate 2), 0.372; in assay [2] ([Peptide] 300 µM, replicate 3) it was 0.402. The Fraction bound in assay [2] ([Peptide] 1000 µM, replicate 1) is 0.141; in assay [2] ([Peptide] 1000 µM, replicate 2) it was 0.198; in assay [2] ([Peptide] 1000 µM, replicate 3), 0.200. Further, in assay [2], the “Stripping of PEX7 off PEX39 lacking the APH” value is on record as “could strip off PEX7 from PEX39 lacking the APH”.
Turning to “PTS1: mEGFP fused at the C terminus to an enhanced PTS1 import signal (GYKGLKSKL)”, the Displacement in assay [3] (0 min, replicate 1) was 0.000 µm; in assay [3] (0 min, replicate 2), 0.000 µm; in assay [3] (0 min, replicate 3), 0.000 µm; in assay [3] (30 min, replicate 1), 44.992 µm; in assay [3] (30 min, replicate 2) it was 39.993 µm; in assay [3] (30 min, replicate 3) it was 31.994 µm. Also, the Displacement in assay [3] (60 min, replicate 1) is on record as 64.988 µm; in assay [3] (60 min, replicate 2), 59.989 µm; in assay [3] (60 min, replicate 3), 45.992 µm.

B1: GST-tagged wild-type yeast PEX39 (GST–PEX39), P47087 ΔRPWE (RPWE motif converted to alanine) (protein)
chain: MAAGGELSYEELLDHILNNKPIPNIVEVPNVTLDEGLASTPSLRPRPAAAAGQLQHQSHQGSLDKPNISLDIDQESLEGMTSLTRLSECYDIQSKLQINDSDNDNDDNNNDNNKGDGNDDDNNTVTANPTAR
As for B1, the other: Kobs (observed binding constant) in the assay with yeast PEX7, P39108 worked out at 190 µM.

B2: PEX39–GFP: PEX39 fused at the C terminus to a GSG linker and mEGFP (protein)
chain: B1 chain with A48R, A49P, A50W, A51E
modifications: left off: GST, N-terminal, cleaved | GFP, C-terminal, kept
notes: PEX39 fused at the C terminus to a GSG linker and mEGFP
Consider B2, for which, in assay [3] (wild-type hydrogel), the “Entry into YG hydrogel” value is listed as “did not by itself enter the YG hydrogel”.

B3: wild-type yeast PEX39 (natural protein, UniProt P47087 1-132, looked up)
chain: B1 chain with A48R, A49P, A50W, A51E
notes: PEX39, yeast; also called WT; not shown: GST, N-terminal, cleaved
As for B3, in assay [4], the binding result is “binds”.

Source of the values: PMC12173945, “Import mechanism of peroxisomal proteins with an N-terminal signal sequence” (Nature Cell Biology, 2025).
